Assay in all cases: growth of human tumour cells (NCI), 48 h
Assay [1] relates to XF498.
In assay [2] the test system is HOP-18.
Assay [3] deals with LXFL 529.
Assay [4] has as its system KM-20L2.
The subject of assay [5] is SNB-78.
The test system of assay [6] is M19-MEL.
The test system of assay [7] is DMS-273.
The test system of assay [8] is DMS-114.
Assay [9] has as its system RXF 631.

Here are results for 25 compounds from ChEMBL document CHEMBL1201862, “PubChem BioAssay data set” (2004).

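Test compounds were applied to cells in 96-well plates for 48 hours at 5 doses. GI50: concentration for 50% inhibition of growth.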 Calls of active or inactive are those of the source. Rule as the data show it: active = GI50 up to about 1.1 µM and inactive = higher. Where only a bound is given, the exact number is not on record here.

Consider `CNC(N)NC`, for which the GI50 in assay [1], in assay [2], in assay [3], in [4], in [5] and in [6] was > 100 µM (inactive) each time. Also, the GI50 in [7] and in assay [8] was > 100 µM (inactive) in each case.

Take `Cn1cnnc1Sc1c([N+](=O)[O-])ncn1C`: the GI50 in assay [1] was > 100 µM (inactive); in assay [2], 13.5 µM (inactive); in assay [9], > 100 µM (inactive); in assay [3] it was 20 µM (inactive); in assay [5], 45.9 µM (inactive); in [7], > 100 µM (inactive). The GI50 in assay [8] was > 100 µM (inactive).

Regarding `O=S(=O)(c1ccccc1)C1CN2OC1(S(=O)(=O)c1ccccc1)CC21CCCCC1` (configuration not stated), the GI50 in assay [1] was 32.3 µM (inactive); in assay [9], > 100 µM (inactive); in [3], > 100 µM (inactive); in assay [4], > 100 µM (inactive); in [6] it was > 100 µM (inactive); in assay [7], 82.6 µM (inactive). For the same compound, in assay [8], the GI50 was > 100 µM (inactive).

As to `NC(=O)c1cccc([N+](=O)[O-])c1`, the GI50 in assay [1], in assay [3], in [4], in assay [5], in assay [6] and in assay [7] was > 100 µM (inactive) in each case. Moreover, in assay [8], the GI50 is > 100 µM (inactive).

On to `N#CC(C(=O)/C(=N/NC(=O)c1ccccc1O)C(C#N)c1ccc(Cl)cc1)c1ccc(Cl)cc1` (configuration not stated), for which the GI50 in assay [1] was 13.5 µM (inactive); in assay [2] it was 11.5 µM (inactive); in assay [3] it was 12.6 µM (inactive); in assay [4], 13.7 µM (inactive); in [5], 19.5 µM (inactive); in assay [6], 14.1 µM (inactive). In addition, the GI50 in assay [8] is 23.8 µM (inactive).

Turning to `COc1ccc(/C=C/C(=O)c2sc(-n3nc(-c4ccccc4)cc3-c3ccccc3)nc2C)cc1OC`, the GI50 was 49.3 µM (inactive) in assay [1]; > 100 µM (inactive) in assay [2]; 24.5 µM (inactive) in assay [9]; 30.3 µM (inactive) in assay [3]; 20.9 µM (inactive) in assay [4]; 42.4 µM (inactive) in [6]. Also, the GI50 in assay [7] was 36.6 µM (inactive); in [8], 28.1 µM (inactive).

As to `COc1ccc2c(c1)CCC(OS(=O)(=O)CC13CCC(CC1=O)C3(C)C)C2=O` (configuration not stated), the GI50 in [1] was 31.2 µM (inactive); in [2], 30.1 µM (inactive); in [3] it was 29.8 µM (inactive); in [4] it was 19.5 µM (inactive); in [6] it was 34.2 µM (inactive); in assay [7], 26.4 µM (inactive). The GI50 in [8] was 27.5 µM (inactive).

On to `C/C1=N\[N-]C(=O)c2ccccc2C(=O)N/N=C(\C)c2cccc1n2.O=[N+]([O-])[O-].[Zn+2]`, for which the GI50 in [2] was > 100 µM (inactive); in assay [3], 44.2 µM (inactive); in assay [4], > 100 µM (inactive); in [5], > 100 µM (inactive); in [8], > 100 µM (inactive).

`COc1ccccc1NC(=O)CC(=O)n1nc(C)c(/N=N/c2ccccc2F)c1C`: the GI50 in assay [1] was 40 µM (inactive); in [2], > 100 µM (inactive); in assay [3], > 100 µM (inactive); in [4], > 100 µM (inactive); in [5], 17.3 µM (inactive); in assay [6] it was > 100 µM (inactive). The GI50 in assay [7] and in assay [8] was > 100 µM (inactive) throughout.

On to `CSc1ccc2c(cc1=O)C(NC(=O)c1ccccc1)CCc1cc(O)c(O)c(O)c1-2` (configuration not stated), for which the GI50 in assay [2] is > 100 µM (inactive); in assay [3], 23.4 µM (inactive); in assay [4] it was 1.81 µM (inactive); in assay [5], 6.79 µM (inactive); in assay [6], 4.94 µM (inactive); in assay [7], 26.9 µM (inactive). In assay [8], the GI50 is 26.2 µM (inactive).

As for `O=C1OC(c2ccc(Cl)c3ccccc23)c2ccccc21` (configuration not stated), the GI50 in assay [1] was > 100 µM (inactive); in assay [2], > 100 µM (inactive); in [9], > 100 µM (inactive); in assay [4] it was 64.3 µM (inactive); in assay [5], > 100 µM (inactive); in [6] it was > 100 µM (inactive). Also, the GI50 in assay [8] was 71.3 µM (inactive).

For `c1ccc(CN(Cn2cccn2)Cn2cccn2)nc1`, the GI50 in [1], in assay [9], in [3], in assay [4], in assay [5] and in assay [6] was > 100 µM (inactive) throughout. The figures for the GI50 in [7] and in assay [8] were 61.7 µM (inactive) and 78.7 µM (inactive), respectively.

Turning to `COc1cc2c(cc1OC)C(CC(=O)NN=C(C)C)NCC2` (configuration not stated), the GI50 in assay [1] was 96.6 µM (inactive); in assay [2], > 100 µM (inactive); in [3], > 100 µM (inactive); in assay [4] it was > 100 µM (inactive); in assay [5], > 100 µM (inactive); in assay [6], > 100 µM (inactive). For the same compound, the GI50 in assay [7] and in assay [8] was > 100 µM (inactive) throughout.

In the case of `COc1cc(/C=C(\C#N)C(=O)c2ccccc2)ccc1O`, the GI50 in assay [1], in assay [3], in [4], in assay [5] and in [6] was > 100 µM (inactive) throughout.

On to `CCCCCCCCCC1CC(=O)OC23CCCC(=O)C12O3` (configuration not stated), for which the GI50 in [1] is > 100 µM (inactive); in assay [2], 62.5 µM (inactive); in assay [3] it was > 100 µM (inactive); in assay [4], > 100 µM (inactive); in assay [5] it was 60.8 µM (inactive); in [6], > 100 µM (inactive). Also, the GI50 in assay [7] is > 100 µM (inactive); in [8], 71.6 µM (inactive).

Consider `Nc1ccccc1C(=O)C(Br)C(Br)c1ccc2c(c1)OCO2` (configuration not stated), for which the GI50 was 16.7 µM (inactive) in assay [1]; 16.7 µM (inactive) in assay [2]; 16.7 µM (inactive) in assay [3]; 17.2 µM (inactive) in [4]; 24.3 µM (inactive) in assay [5]; 17.8 µM (inactive) in assay [6]. Moreover, the GI50 in assay [7] is 15.1 µM (inactive); in [8], 18.2 µM (inactive).

As for `CC1=C2C(=O)C(C)(C)C=C2C(=O)[C@](C)(O)C12CC2` [DEHYDROILLUDIN M], the GI50 in [1] is 0.664 µM (active); in assay [2], > 1 µM (active); in assay [3], 0.698 µM (active); in [4], 0.527 µM (active); in assay [5] it was 0.522 µM (active); in [6], > 0.953 µM (active). The GI50 in assay [7] is 0.282 µM (active).

Regarding `N#Cc1ccc2cc3c(cc2c1)OCO3`, the GI50 in assay [9] was > 100 µM (inactive); in assay [3], > 100 µM (inactive); in [4] it was > 100 µM (inactive); in [5], > 100 µM (inactive); in assay [6], > 100 µM (inactive); in assay [7], 95.5 µM (inactive). Moreover, the GI50 in [8] was > 100 µM (inactive).

Regarding `CC(C)N(C(C)C)P(OCCC#N)OC1CC(n2cnc3c(=O)[nH]cnc32)OC1COC(=O)NCCCCCCNC(=O)OC(C)(C)c1ccc(-c2ccccc2)cc1` (configuration not stated), the GI50 in assay [2] was 92 µM (inactive); in assay [3] it was 17.5 µM (inactive); in assay [4], 43.2 µM (inactive); in assay [5], 30.5 µM (inactive); in assay [6], 21.5 µM (inactive); in assay [7], 17.4 µM (inactive). Besides, the GI50 in assay [8] was 21.8 µM (inactive).

Turning to `N#CCCN(CCC#N)c1ccc(/C=C(/NC(=O)c2cc([N+](=O)[O-])ccc2Cl)C(=O)N=[N+]=[N-])cc1`, the GI50 in assay [2], in [9], in assay [3], in assay [4], in assay [5] and in assay [6] was > 100 µM (inactive) in each case. The GI50 in [7] and in [8] was > 100 µM (inactive) each time.

In the case of `NS(=O)(=O)OCCCCCCCOS(N)(=O)=O`, the GI50 in assay [1] was 54.8 µM (inactive); in assay [2], 689 µM (inactive); in [4], 488 µM (inactive); in assay [5], 526 µM (inactive); in assay [6], 383 µM (inactive); in assay [7] it was 68.7 µM (inactive). Also, the GI50 in assay [8] is 130 µM (inactive).

For the compound `COC(=O)C1CC/C(=N/C2c3ccccc3-c3ccccc32)N1` (configuration not stated), the GI50 in assay [1], in assay [2], in assay [9], in assay [3], in assay [4] and in assay [5] was > 100 µM (inactive) throughout. The GI50 is > 100 µM (inactive) in [6], > 100 µM (inactive) in assay [7] and 43.8 µM (inactive) in [8].

Take `CC(C)(C)C1CCC(CI)(N=[N+]=[N-])CC1` (configuration not stated): the GI50 in assay [1] was 42.5 µM (inactive); in assay [2], > 100 µM (inactive); in assay [3], > 100 µM (inactive); in assay [4], > 100 µM (inactive); in [5], > 100 µM (inactive); in assay [6], 99.1 µM (inactive). The GI50 in assay [7] and in assay [8] was > 100 µM (inactive) each time.

For `COc1ccc2c(c1)C1C(CO2)C(c2ccccc2)=NN1c1ccccc1` (configuration not stated), the GI50 in [1], in assay [2], in [9], in assay [3], in assay [4] and in [5] was > 100 µM (inactive) each time. Further, the GI50 in assay [6], in [7] and in [8] was > 100 µM (inactive) each time.

For `COc1cc2cc3c4c(cc(OC)c(OC)c4c2cc1OC)CCN3C(=O)OCCBr`, the GI50 in assay [1] is > 100 µM (inactive); in assay [4], 43.4 µM (inactive); in assay [5], > 100 µM (inactive); in assay [6], 81.8 µM (inactive); in assay [7], 50.2 µM (inactive).
